Experiments:
Assay in all cases: relative viability (nuclei count vs DMSO), 5 days (fraction); higher = more cells survive
Afatinib + Olaparib = compound: CN(C)C/C=C/C(=O)Nc1cc2c(Nc3ccc(F)c(Cl)c3)ncnc2cc1O[C@H]1CCOC1 [Afatinib] + O=C(c1cc(Cc2n[nH]c(=O)c3ccccc23)ccc1F)N1CCN(C(=O)C2CC2)CC1 [Olaparib] (partner 8 µM)
In short: (§1)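 Lung cancer cell lines in 1536-well plates got either a single drug or a fixed anchor-drug dose together with five library-drug doses (not always all listed) in √10 steps, by pin tool, on the day after seeding. Nuclei were counted after 5 days, and relative viability is the treated-to-vehicle ratio of nuclei counts. Values are medians of duplicate plates.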

Afatinib + Pemetrexed = compound: CN(C)C/C=C/C(=O)Nc1cc2c(Nc3ccc(F)c(Cl)c3)ncnc2cc1O[C@H]1CCOC1 [Afatinib] + Nc1nc2[nH]cc(CCc3ccc(C(=O)N[C@@H](CCC(=O)O)C(=O)O)cc3)c2c(=O)[nH]1 [Pemetrexed] (partner 0.2 µM)
In short: as §1

Afatinib + Alpelisib = compound: CN(C)C/C=C/C(=O)Nc1cc2c(Nc3ccc(F)c(Cl)c3)ncnc2cc1O[C@H]1CCOC1 [Afatinib] + Cc1nc(NC(=O)N2CCC[C@H]2C(N)=O)sc1-c1ccnc(C(C)(C)C(F)(F)F)c1 [Alpelisib] (partner 2 µM)
In short: as §1

Afatinib + Foretinib = compound: CN(C)C/C=C/C(=O)Nc1cc2c(Nc3ccc(F)c(Cl)c3)ncnc2cc1O[C@H]1CCOC1 [Afatinib] + COc1cc2c(Oc3ccc(NC(=O)C4(C(=O)Nc5ccc(F)cc5)CC4)cc3F)ccnc2cc1OCCCN1CCOCC1 [Foretinib] (partner 0.25 µM)
In short: as §1

Row | Cell Line | relative viability (Afatinib + Olaparib; first compound 0.005 µM) | relative viability (Afatinib + Olaparib; first compound 0.01581 µM) | relative viability (Afatinib + Olaparib; first compound 0.05 µM) | relative viability (Afatinib + Olaparib; first compound 0.1581 µM) | relative viability (Afatinib + Olaparib; first compound 0.5 µM) | relative viability (Afatinib + Pemetrexed; first compound 0.005 µM) | relative viability (Afatinib + Pemetrexed; first compound 0.01581 µM) | relative viability (Afatinib + Pemetrexed; first compound 0.05 µM) | relative viability (Afatinib + Pemetrexed; first compound 0.1581 µM) | relative viability (Afatinib + Pemetrexed; first compound 0.5 µM) | relative viability (Afatinib + Alpelisib; first compound 0.005 µM) | relative viability (Afatinib + Alpelisib; first compound 0.01581 µM) | relative viability (Afatinib + Alpelisib; first compound 0.05 µM) | relative viability (Afatinib + Alpelisib; first compound 0.1581 µM) | relative viability (Afatinib + Alpelisib; first compound 0.5 µM) | relative viability (Afatinib + Foretinib; first compound 0.005 µM) | relative viability (Afatinib + Foretinib; first compound 0.01581 µM) | relative viability (Afatinib + Foretinib; first compound 0.05 µM) | relative viability (Afatinib + Foretinib; first compound 0.1581 µM) | relative viability (Afatinib + Foretinib; first compound 0.5 µM)
1 | H3255 | 0.332 | 0.273 | 0.277 | 0.277 | 0.236 | 0.365 | 0.313 | 0.306 | 0.307 | 0.273 | 0.209 | 0.135 | 0.168 | 0.123 | 0.123 | 0.861 | 0.134 | 0.2 | 0.216 | 0.188
2 | EPLC-272H | 0.567 | 0.776 | 0.727 | 0.734 | 0.595 | 0.349 | 0.381 | 0.301 | 0.285 | 0.318 | 0.775 | 0.818 | 0.737 | 0.691 | 0.731 | 0.492 | 0.426 | 0.406 | 0.381 | 0.355
3 | PC-3 [JPC-3] | 0.608 | 0.453 | 0.472 | 0.456 | 0.476 | 0.514 | 0.384 | 0.462 | 0.414 | 0.431 | 0.49 | 0.392 | 0.377 | 0.362 | 0.354 | 0.472 | 0.508 | 0.42 | 0.388 | 0.343
4 | NCI-H1793 | 0.659 | 0.633 | 0.461 | 0.398 | 0.582 | 0.814 | 0.582 | 0.584 | 0.582 | 0.503 | 0.57 | 0.658 | 0.555 | 0.544 | 0.527 | 0.621 | 0.463 | 0.401 | 0.352 | 0.353
5 | EKVX | 0.602 | 0.687 | 0.534 | 0.283 | 0.227 | 0.318 | 0.271 | 0.254 | 0.187 | 0.185 | 0.713 | 0.704 | 0.46 | 0.187 | 0.156 | 0.838 | 0.428 | 0.453 | 0.129 | 0.318
6 | ChaGo-K-1 | 0.466 | 0.439 | 0.447 | 0.396 | 0.397 | 0.246 | 0.262 | 0.268 | 0.257 | 0.247 | – | – | – | – | – | 0.86 | 0.882 | 0.876 | 0.86 | 0.846
7 | NCI-H23 | 0.331 | 0.303 | 0.37 | 0.291 | 0.333 | 0.667 | 0.609 | 0.586 | 0.704 | 0.567 | 0.771 | 0.735 | 0.725 | 0.636 | 0.561 | 0.99 | 1.02 | 1.02 | 0.847 | 0.951
8 | EMC-BAC-2 | 0.53 | 0.501 | 0.595 | 0.554 | 0.531 | 0.441 | 0.496 | 0.462 | 0.523 | 0.511 | 0.734 | 0.635 | 0.635 | 0.603 | 0.634 | 1.03 | 0.952 | 0.865 | 0.753 | 0.928
9 | LOU-NH91 | 0.701 | 0.704 | 0.701 | 0.687 | 0.742 | 0.371 | 0.424 | 0.393 | 0.433 | 0.418 | 0.494 | 0.492 | 0.537 | 0.501 | 0.523 | 0.541 | 0.524 | 0.592 | 0.497 | 0.568
10 | LU99A | 0.253 | 0.266 | 0.249 | 0.248 | 0.264 | 0.158 | 0.192 | 0.18 | 0.206 | 0.181 | 0.557 | 0.468 | 0.438 | 0.452 | 0.489 | 0.957 | 0.818 | 0.831 | 0.77 | 0.785
11 | NCI-H1395 | 0.471 | 0.475 | 0.463 | 0.483 | 0.49 | 0.951 | 0.811 | 0.827 | 0.92 | 0.752 | 1.11 | 1.17 | 1.08 | 1.41 | 1.29 | 0.939 | 1.05 | 0.973 | 0.914 | 0.937
12 | NCI-H460 | 0.373 | 0.407 | 0.439 | 0.458 | 0.491 | 0.0534 | 0.0601 | 0.0633 | 0.0503 | 0.0638 | 0.52 | 0.509 | 0.484 | 0.543 | 0.349 | 0.987 | 0.895 | 0.943 | 1.07 | 0.978
13 | 201T | 0.846 | 0.826 | 0.752 | 0.78 | 0.854 | 0.294 | 0.353 | 0.379 | 0.38 | 0.31 | 1 | 0.961 | 0.922 | 0.918 | 0.935 | 1.04 | 1.05 | 1.01 | 0.949 | 1.17
14 | NCI-H1944 | 0.384 | 0.364 | 0.39 | 0.326 | 0.332 | 0.605 | 0.583 | 0.511 | 0.378 | 0.453 | 0.677 | 0.763 | 0.693 | 0.465 | 0.518 | 0.797 | 0.899 | 0.668 | 0.535 | 0.657
15 | NCI-H2405 | 0.885 | 0.934 | 0.864 | 0.874 | 0.852 | 1.09 | 1.14 | 1.12 | 1.01 | 0.953 | 0.703 | 0.804 | 0.875 | 0.708 | 0.913 | 1.07 | 1.02 | 1.05 | 0.978 | 1.08
16 | NCI-H1703 | 0.538 | – | 0.411 | 0.297 | 0.445 | – | – | – | – | – | 0.313 | 0.322 | 0.286 | 0.278 | 0.314 | 0.319 | – | 0.347 | 0.361 | 0.329

Reference: the supplement of paper PMC10307832
